{"source": "patent US20210322331A1", "about": "“NANOCAPSULES FOR THE DELIVERY OF CELL MODULATING AGENTS” (CSL BEHRING LLC, priority 2018, published 2021)", "type_in_all_cases": "cell-based", "key": {"[1]": {"tested_on": "K562 cells", "assay": "Negative selection with MTX on transduced or transfected K562 cells", "details": "0.3 uM of MTX", "method": "FIGS. 9A and 9B illustrate the effect of negative selection with 300 nM of MTX on K562 cells transduced with sh7-GFP lentiviral vector or transfected with RNP targeting HPRT1 nanocapsules.\nTransduced or transfected K562 cells (such as those from Example 5) were cultured with or without MTX from day 0 to day 14. The medium was refreshed every 3 to 4 days. GFP was analyzed on flow machine and InDel % was analyzed by T7E1 assay. […] FIG. 9B illustrated that the transfected K562 cells were eliminated under treatment with 0.3 uM of MTX at a faster pace as compared with the HPRT-KD population."}, "[2]": {"tested_on": "CEM cells", "assay": "Negative selection with MTX or MPA on transduced or transfected CEM cells", "details": "for GFP-population of transduced cells (HPRT knockdown): FIG. 10A, CEM experiment; for HPRT knockout population of CEM cells: FIG. 10B", "method": "FIGS. 10A and 10B illustrate the effect of negative selection with 300 nM of MTX, 1 uM and 10 uM of MPA on CEM cells transduced with sh7-GFP lentiviral vector or transfected with RNP targeting HPRT1 nanocapsules.\nTransduced or transfected CEM cells (such as those from Example 6) were cultured with or without MTX from day 0 to day 14. The medium was refreshed every 3 to 4 days. GFP was analyzed on flow machine and InDel % was analyzed by T7E1 assay."}, "[3]": {"tested_on": "CCR5", "assay": "CCR5 staining with 6-TG selection in mPB CD34+ cells", "details": "100 nM of 6TG day 4 to 14, flow at day 14; without 6TG 44.9%", "method": "Assay protocols and results for CCR5 staining with 6-TG selection in sh734-KI mPB CD34+ cells (i.e. Mobilized CD34+ cells cultured with TPO/SCF/FLT3/IL3 and Knock-out of CCR5 and knock-in of sh734 in CD34+ cells)\n(§1) Nanocapsules were formulated to contain CRISPR/Cas9/gRNAR targeting CCR5/mi-sh734 expression cassette HDR template CRISPR machinery complex (see methods). Cd34+ cells were thawed and pre-stimulated in x-vivo 10 with 100 ng/mL of TPO/SCF/FLT4/IL3 for overnight. Then 500 ng of Cas9-CCR5-gRNA-3G-mi-sh734 nanocapsules were added into 5×10^4 cells per well and 100 nM of 6TG was added into culture media from day 4 to 14. The flow analysis was carried out at day 14.\nas §1, with “6-TG selection was examined using VCN/InDel data. mPB CD34+ were transfected/transduced as indicated in FIG. 8A Nanocapsules” for “Nanocapsules”, “prestimulated” for “pre-stimulated”, “X-vivo” for “x-vivo”"}}, "data": [{"smiles": "CN(Cc1cnc2nc(N)nc(N)c2n1)c1ccc(C(=O)N[C@@H](CCC(=O)O)C(=O)O)cc1", "note": "[MTX, methotrexate]", "values": [{"measurement": "GFP-population of transduced K562 cells (HPRT knockdown)", "setting": "[1]; FIG. 9A, day 0 to day 14", "result": "decreased"}, {"measurement": "transfected (HPRT knockout) K562 cells", "setting": "[1]; FIG. 9B, compared with the HPRT-KD population", "result": "eliminated"}, {"measurement": "GFP-population of transduced cells (HPRT knockdown)", "setting": "[2]; 0.3 uM of MTX", "result": "decreased"}, {"measurement": "HPRT knockout population of CEM cells", "setting": "[2]; 0.3 uM of MTX", "result": "eliminated at a faster pace"}]}, {"smiles": "Nc1nc2nc[nH]c2c(=S)[nH]1", "note": "[6TG, 6-thioguanine]", "values": [{"measurement": "CCR5+ of CD34+ cells with 6TG treatment (no nanocapsule)", "setting": "[3]", "result": 43.4, "unit": "%"}]}, {"smiles": "COc1c(C)c2c(c(O)c1C/C=C(\\C)CCC(=O)O)C(=O)OC2", "note": "[MPA, mycophenolic acid]", "values": [{"measurement": "GFP-population of transduced cells (HPRT knockdown)", "setting": "[2]; 1 uM of MPA", "result": "decreased"}, {"measurement": "GFP-population of transduced cells (HPRT knockdown)", "setting": "[2]; 10 uM of MPA", "result": "decreased"}, {"measurement": "HPRT knockout population of CEM cells", "setting": "[2]; 1 uM of MPA", "result": "eliminated at a faster pace"}, {"measurement": "HPRT knockout population of CEM cells", "setting": "[2]; 10 uM of MPA", "result": "eliminated at a faster pace"}]}]}
